Entries after “also recorded” stand apart in the source; their conditions may differ.
Tests used:
[1] = tested on: guinea pig dysphagia model induced by repeated administrations of haloperidol; test: Swallowing reflex (water drinking frequency) in dysphagia model induced by repeated administrations of haloperidol; format: in vivo; conditions: for water drinking frequency (dysphagia improving effect): oral (intragastric)
normal guinea pig = test: Swallowing reflex in normal guinea pig after local pharyngeal administration of substance P receptor antagonist; format: in vivo
Protocol: (§1) To 6 week-old female Hartley guinea pigs (330 to 390 g) habituated for 1 week after receipt, a physiological saline solution, or a haloperidol solution was injected subcutaneously in a dosage of 1 mg/kg approx. every 12 hours twice per day for 7 days. Thereafter, a guinea pig was fixed at extremities, and 500 μL of distilled water was injected over 5 sec through a device to a part just before the pharynx, and the total frequency of swallowing until 10 sec and 30 sec from the injection was measured based on a muscle movement in a pharyngeal site. Thereafter a physiological saline solution, or a haloperidol solution was injected again (1 mg/kg).
FK888 (10 μM, 50 μL/guinea pig), which is a substance P receptor antagonist, was administered locally with a spray device to a pharyngeal site of a guinea pig, and water drinking reflection frequency was measured in the same way as in Experiment 1.

Hartley guinea pigs = test: Swallowing reflex (water drinking frequency) after repeated administrations of haloperidol; format: in vivo, guinea pig; conditions: haloperidol 1 mg/kg s.c. twice per day for 7 days, compared to physiological saline group
Protocol: as §1
The measurements were repeated totally 4 times at intervals of 1 min. […] Based on the result, the guinea pig was used as a dysphagia model induced by repeated administrations of haloperidol in the following experiments for evaluation of drug efficacy.

[2] = tested on: guinea pig dysphagia model induced by repeated administrations of haloperidol; test: Swallowing reflex (water drinking frequency) in dysphagia model induced by repeated administrations of haloperidol; format: in vivo; conditions: local spray to pharyngeal mucosa, 100 μL of 50 μM aqueous solution, 2 hours after administration
[3] = tested on: blood pressure increase by intravenous administration of angiotensin I in a normal rat; test: Blood pressure increase induced by intravenous angiotensin I; conditions: oral, angiotensin I 300 ng/kg i.v. after 1 hour, SD male rats
Protocol: The respective dose of a captopril, or lisinopril aqueous solution was administered orally and the blood pressures were measured after 1 hour. Thereafter, angiotensin I was administered intravenously (300 ng/kg) to induce blood pressure increase and a change in the mean blood pressure was measured.

`CN(Cc1ccccc1)C(=O)[C@H](Cc1ccc2ccccc2c1)NC(=O)[C@@H]1C[C@@H](O)CN1C(=O)c1cn(C)c2ccccc12` [FK888] was tested, and the “lower limit not influencing swallowing reflex” value ([1]; 100 μL local spray to pharyngeal mucosa) was 10 nM, the “increase in water drinking frequency by lisinopril (50 nM, 100 μL)” value ([1]; FK888 10 nM, 100 μL, local spray 15 min after lisinopril administration) was “almost completely suppressed” and the “swallowing reflex (water drinking reflection frequency)” value (normal guinea pig; FK888 10 μM, 50 μL/guinea pig, local spray to pharyngeal site) was “decrease in swallowing reflex”.

With `C[C@H](CS)C(=O)N1CCC[C@H]1C(=O)O` [captopril] the water drinking frequency ([1]; 100 μL of 50 μM aqueous solution sprayed to pharyngeal mucosa, 30 min after spray) was “significant increase; also recorded: exhibited an improving effect on dysphagia”, the water drinking frequency ([1]; 100 μL of 50 mM aqueous solution sprayed to pharyngeal mucosa, 30 min after spray) was “significant increase; also recorded: exhibited an improving effect on dysphagia” and the “water drinking frequency (dysphagia improving effect)” value ([1]; same dose as 100 μL of 50 μM aqueous solution, 30 min after administration) was “did not exert an influence”. For the same molecule, the “water drinking frequency (dysphagia improving effect)” value ([1]; same dose as 100 μL of 50 mM aqueous solution, 30 min after administration) was “did not exert an influence” and the “decrease in swallowing reflex by FK888 administration” value (normal guinea pig; captopril aqueous solution sprayed to pharyngeal site 30 min before FK888) was “suppressed”.

In the case of `O=C(CCCN1CCC(O)(c2ccc(Cl)cc2)CC1)c1ccc(F)cc1` [haloperidol], the water drinking frequency (Hartley guinea pigs) is reported as “significantly decreased”.

`NCCCC[C@H](N[C@@H](CCc1ccccc1)C(=O)O)C(=O)N1CCC[C@H]1C(=O)O` [lisinopril] was tested, and the “water drinking frequency (dysphagia improving effect)” value [2] was “exhibited an improving effect on dysphagia”, the “dose giving significant increase in water drinking frequency” value ([1]; 100 μL aqueous solution sprayed to pharyngeal mucosa) was no less than 50 nM and the water drinking frequency ([1]; 100 μL of 0.5 nM to 500 μM aqueous solution (pH 7.0) sprayed to pharyngeal mucosa) was “dose-dependent increase”. For the same molecule, the water drinking frequency ([1]; 100 μL of 50 nM aqueous solution sprayed to pharyngeal mucosa, 30 min after administration) was “increase in water drinking frequency”, the “water drinking frequency (dysphagia improving effect)” value ([1]; same dose as the local administration (100 μL of 50 mM), 2 hours after administration) was “exerted no influence; also recorded: no dysphagia improving effect was observed” and the “vasopressor reaction by administration of angiotensin I (change in mean blood pressure)” value ([3]; 100 μL of 5 μM aqueous solution) was “had no influence”. For the same molecule, the “vasopressor reaction by administration of angiotensin I (change in mean blood pressure)” value ([3]; 100 μL of 5 mM aqueous solution) was “suppressed a vasopressor reaction”.

— patent publication US10052281B2, “Local administration-type pharmaceutical for improving dysphagia” (MEIJI SEIKA PHARMA CO., LTD., priority 2011, dated 2018)
